Assay results reported in patent US20170066717A1, “NEW PHENYLAZETIDINECARBOXYLATE OR -CARBOXAMIDE COMPOUNDS” (INVENTIVA, priority 2014, published 2017).

What was measured:
NURR-1/RXRα = target: T1, NURR-1/RXRα (Homo sapiens, UniProt P19793); experiment: Transactivation test, NURR-1-Gal4/RXRα, luciferase reporter in Cos-7 cells; format: cell-based
T1 construct: expressed in transfected cells; host or cells: Cos-7 cells

NURR-1/RXRγ = target: T2, NURR-1/RXRγ (Homo sapiens, UniProt P48443); experiment: Transactivation test, NURR-1-Gal4/RXRγ, luciferase reporter in Cos-7 cells; format: cell-based
T2 construct: expressed in transfected cells; host or cells: Cos-7 cells

[1] = tested on: dopaminergic neurons of primary culture of rat embryo mesencephalon treated with MPP+; experiment: Neuroprotection in primary culture of rat embryo mesencephalon treated with MPP+ (count of tyrosine hydroxylase expressing cells); format: cell-based; conditions: recombinant human BDNF 10 ng/mL = 100%, 2 days with MPP+
Procedure, shortened: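 Rat embryo (E15) mesencephalon cultures, 5 days, then MPP+ with or without compound on day 6 for 2 days. Tyrosine hydroxylase-immunolabelled cells counted by image analysis; activity expressed as percent of recombinant human BDNF (10 ng/mL) reference, set at 100%.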

[2] = Plasma pharmacokinetics in mice after oral administration; format: in vivo; conditions: mouse, male C57/Bl6 mice, oral 10 mg/kg
Procedure, shortened: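 Male C57/B16 mice (25-30 g, fed, 9 per dose) received 10 mg/kg by oral gavage as a suspension in 1% methylcellulose 400 cps/0.1% Poloxamer 188/water. Plasma was sampled at 15 min, 30 min, 1 h, 3 h and 7 h and quantified by LC-MS/MS after protein precipitation. Parameters were derived non-compartmentally, with AUC by the log-linear trapezoidal method.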

[3] = Brain penetration in rats after intravenous administration; format: in vivo; conditions: rat
Procedure, shortened: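 Male Wistar rats (250-300 g, fed, n=4) received test compound by 4-hour jugular vein infusion at 4 mg/kg in 2% Cremophor EL/0.9% NaCl. At the end of infusion, plasma and brain homogenate were analysed by LC-MS/MS; Kp is the brain-to-plasma concentration ratio after 4 hours.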

T1 sequence (P19793 whole entry, the tested form may be a part): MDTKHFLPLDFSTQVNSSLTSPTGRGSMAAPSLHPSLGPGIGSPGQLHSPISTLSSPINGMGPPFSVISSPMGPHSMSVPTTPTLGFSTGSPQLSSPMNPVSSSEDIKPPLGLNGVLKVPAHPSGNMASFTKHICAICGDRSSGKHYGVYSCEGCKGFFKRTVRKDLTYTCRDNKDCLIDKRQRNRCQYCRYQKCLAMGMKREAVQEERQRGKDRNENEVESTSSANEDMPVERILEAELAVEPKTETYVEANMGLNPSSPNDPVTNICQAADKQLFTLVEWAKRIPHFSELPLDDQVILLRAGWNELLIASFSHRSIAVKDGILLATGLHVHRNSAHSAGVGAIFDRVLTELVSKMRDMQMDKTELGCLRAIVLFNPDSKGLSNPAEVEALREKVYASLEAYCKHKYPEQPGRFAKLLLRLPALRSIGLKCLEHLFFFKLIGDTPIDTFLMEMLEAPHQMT
T1 sequence (P43354 whole entry partner, the tested form may be a part): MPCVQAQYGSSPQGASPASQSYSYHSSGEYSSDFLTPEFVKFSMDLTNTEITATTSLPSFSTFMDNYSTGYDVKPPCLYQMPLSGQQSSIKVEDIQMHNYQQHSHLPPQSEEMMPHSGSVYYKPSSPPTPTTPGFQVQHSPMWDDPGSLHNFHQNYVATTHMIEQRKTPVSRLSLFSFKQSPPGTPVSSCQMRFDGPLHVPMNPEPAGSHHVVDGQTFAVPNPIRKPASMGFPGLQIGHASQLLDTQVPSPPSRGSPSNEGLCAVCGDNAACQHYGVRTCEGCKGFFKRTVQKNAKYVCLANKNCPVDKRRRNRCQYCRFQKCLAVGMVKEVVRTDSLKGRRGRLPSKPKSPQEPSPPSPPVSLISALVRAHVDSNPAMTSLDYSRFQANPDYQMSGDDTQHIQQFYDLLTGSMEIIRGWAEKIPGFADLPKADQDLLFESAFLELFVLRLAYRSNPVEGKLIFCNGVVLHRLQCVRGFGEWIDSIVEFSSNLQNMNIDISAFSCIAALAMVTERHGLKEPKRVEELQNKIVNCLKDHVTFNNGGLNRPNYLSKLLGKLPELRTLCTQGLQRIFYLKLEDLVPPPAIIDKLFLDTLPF
T1 sequence (P04386 1-147 partner limits assumed): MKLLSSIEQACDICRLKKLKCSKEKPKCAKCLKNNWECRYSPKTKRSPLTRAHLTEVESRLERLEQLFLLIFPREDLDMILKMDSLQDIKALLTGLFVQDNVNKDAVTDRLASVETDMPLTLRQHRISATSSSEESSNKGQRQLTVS
T2 sequence (P48443 whole entry, the tested form may be a part): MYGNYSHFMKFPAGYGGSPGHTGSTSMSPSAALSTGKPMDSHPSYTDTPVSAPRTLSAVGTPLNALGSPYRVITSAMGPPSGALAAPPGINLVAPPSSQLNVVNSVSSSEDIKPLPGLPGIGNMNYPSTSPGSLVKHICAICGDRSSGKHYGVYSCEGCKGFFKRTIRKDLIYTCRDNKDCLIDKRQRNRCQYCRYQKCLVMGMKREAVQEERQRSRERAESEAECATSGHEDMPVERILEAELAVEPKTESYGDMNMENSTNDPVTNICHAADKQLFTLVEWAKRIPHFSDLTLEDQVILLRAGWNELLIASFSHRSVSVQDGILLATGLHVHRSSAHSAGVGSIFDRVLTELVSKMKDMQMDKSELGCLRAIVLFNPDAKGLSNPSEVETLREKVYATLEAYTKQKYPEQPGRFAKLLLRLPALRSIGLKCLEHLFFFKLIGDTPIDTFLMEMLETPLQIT
T2 sequence (P43354 whole entry partner, the tested form may be a part): as the sequence (P43354 whole entry partner, the tested form may be a part) above
T2 sequence (P04386 1-147 partner limits assumed): as the sequence (P04386 1-147 partner limits assumed) above

Structure (SMILES): O=C(O)C1CN(c2cccc(-c3cc(C(F)(F)F)ccc3OCCc3cccs3)c2)C1 [Example 100, 1-[3-[2-[2-(2-thienyl)ethoxy]-5-(trifluoromethyl)phenyl]phenyl]azetidine-3-carboxylic acid]
- Emax (NURR-1/RXRα; COS-7, induction level relative to reference XCT0135908 at 2×10^−5 M (=100%), read-out: hNurr1_RXRaFL Emax (%)): 63%
- EC50 (NURR-1/RXRα; Cos-7 cells, NURR-1-Gal4/RXRα, luciferase reporter, read-out: hNurr1_RXRaFL EC50): 14 nM
- Emax (NURR-1/RXRγ; COS-7, induction level relative to reference XCT0135908 at 2×10^−5 M (=100%), read-out: hNurr1_RXRgFL Emax (%)): 63%
- EC50 (NURR-1/RXRγ; Cos-7 cells, NURR-1-Gal4/RXRγ, luciferase reporter, read-out: hNurr1_RXRgFL EC50): 24 nM
- percentage of activity relative to the BDNF reference ([1]; compound 1 μM): 100%
- percentage of activity relative to the BDNF reference ([1]; compound 10 μM): 106%
- AUC ([2]; sampling 15 min to 7 h, log-linear trapezoidal method, read-out: AUCplasma): 56600 ng·h/mL
- Cmax ([2]; suspension in 1% methylcellulose/0.1% Poloxamer 188): 11200 ng/mL
- Kp at 4 h ([3]; male, Wistar, intravenous, 4 mg/kg, ratio of Cmax brain to Cmax plasma after the 4 hours of infusion, rats, read-out: Kp (partition coefficient between the brain and the plasma)): 0.75
- Cmax at 4 h ([3]; male Wistar rats, 4 mg/kg iv infusion into the jugular vein for 4 hours, plasma at end of infusion): 6070 ng/mL
